Results on 21 compounds are retold here after US10000507B2, “Furo- and thieno-pyridine carboxamide compounds useful as pim kinase inhibitors” (Incyte Corporation, priority 2013, dated 2018).

A value given as a limit tells only on which side of the number the result lay.

Holding throughout (type): biochemical
The target of one test is Pim-2 (Homo sapiens (Human), UniProt Q9P1W9). The test can be described thus: Pim-2 kinase assay. Particulars: 1 mM ATP, fluorescein-labeled CREBtide peptide substrate; read-out: Pim2 IC50. On the procedure: Pim-2 kinase assay-20 μL reactions were run in white 384 well polystyrene plates dotted with 0.8 μL compound/DMSO in the assay buffer (50 mM Tris, pH 7.5, 0.01% Tween-20, 5 mM MgCl2, 0.01% BSA, 5 mM DTT), containing 0.05 μm Fluorescein-labeled CREBtide peptide substrate (Invitrogen PV3508), 1 mM ATP, and 1 nM enzyme (Invitrogen PV3649) for 2 h at 25° C. Reactions were stopped by addition of 10 μL TR-FRET Dilution Buffer (Invitrogen PV3574) with 30 mM EDTA and 1.5 nM LanthaScreen Tb-CREB pSer133 antibody (Invitrogen PV3566). After 30 min. incubation at room temperature, plates were read on a PHERAstar FS plate reader (BMG Labtech).
Sequence of Pim-2 (Q9P1W9 whole entry): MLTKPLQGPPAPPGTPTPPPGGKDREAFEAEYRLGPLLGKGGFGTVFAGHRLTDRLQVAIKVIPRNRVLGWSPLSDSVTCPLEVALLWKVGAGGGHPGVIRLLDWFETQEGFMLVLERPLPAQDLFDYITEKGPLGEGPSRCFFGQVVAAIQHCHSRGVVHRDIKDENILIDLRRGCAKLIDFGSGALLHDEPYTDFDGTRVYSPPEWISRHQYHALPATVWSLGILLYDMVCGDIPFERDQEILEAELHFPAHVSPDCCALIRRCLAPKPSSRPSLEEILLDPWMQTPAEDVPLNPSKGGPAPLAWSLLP

The target of the next test is Pim-1 (Homo sapiens (Human), UniProt P11309). Put plainly: Pim-1 kinase assay. Particulars: 1 mM ATP, biotin-labeled BAD peptide substrate; read-out: Pim1 IC50. On the procedure: (§1) Pim-1 and Pim-3 kinase assays-20 μL reactions were run in white 384 well polystyrene plates dotted with 0.8 μL compound/DMSO in the assay buffer (50 mM Tris, pH 7.5, 0.01% Tween-20, 5 mM MgCl2, 0.01% BSA, 5 mM DTT), containing […] Biotin-labeled BAD peptide substrate (AnaSpec 62269), 1 mM ATP, and 2.5 pM (Pim-1, Invitrogen PV3503) or 1.25 pM (Pim-3, Millipore 14-738) enzyme for 1 h at 25° C. Reactions were stopped by addition of 10 μL STOP Buffer (150 mM Tris, pH=7.5, 150 mM NaCl, 75 mM EDTA, 0.01% Tween-20, 0.3% BSA) supplemented with Phospho-Bad (Ser112) Antibody (Cell Signaling 9291) diluted 666-fold, and Streptavidin donor beads (PerkinElmer 6760002) along with Protein-A acceptor beads (PerkinElmer 6760137) at 15 μg/mL each. Supplementation of the STOP buffer with beads and stopping the reactions were done under reduced light. Prior to the stopping reactions STOP buffer with beads was pre-incubated for 1 h in the dark at room temperature. After stopping the reactions, plates were incubated for 1 h in the dark at room temperature before reading on a PHERAstar FS plate reader (BMG Labtech) under reduced light.
Sequence of Pim-1 (P11309 whole entry): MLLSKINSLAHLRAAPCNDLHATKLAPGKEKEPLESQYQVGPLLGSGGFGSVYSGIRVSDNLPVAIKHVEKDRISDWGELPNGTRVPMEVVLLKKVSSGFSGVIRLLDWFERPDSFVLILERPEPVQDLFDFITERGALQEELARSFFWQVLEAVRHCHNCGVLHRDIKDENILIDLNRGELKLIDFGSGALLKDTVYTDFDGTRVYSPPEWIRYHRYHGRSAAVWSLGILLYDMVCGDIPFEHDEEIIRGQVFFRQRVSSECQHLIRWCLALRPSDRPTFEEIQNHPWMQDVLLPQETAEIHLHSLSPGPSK

In a further test the target is Pim-3 (Homo sapiens (Human), UniProt Q86V86). Put plainly: Pim-3 kinase assay. Particulars: 1 mM ATP, biotin-labeled BAD peptide substrate; read-out: Pim3 IC50. The method, then: as §1

Usually IC50 stands for the concentration at which inhibition is half-maximal. As to `Nc1oc2cccnc2c1C(=O)Nc1cnccc1N1C[C@@H](N)[C@H](O)[C@@H](C(F)(F)F)C1` (single isomer, unassigned) [Example 87 (Diastereoisomer 2)], the values for the IC50 at Pim-2, at Pim-1 and at Pim-3 were 10 to 100 nM, not above 10 nM and not above 10 nM, respectively.

Take `Nc1sc2ccc(Cl)nc2c1C(=O)Nc1cnccc1N1CCC[C@H](N)C1` (stereo in doubt) [Example 40, 2-Amino-N-[4-(3-aminopiperidin-1-yl)pyridin-3-yl]-5-chlorothieno[3,2-b]pyridine-3-carboxamide]: the half-inhibitory concentration (IC50) was more than 2000 nM at Pim-2, not above 10 nM at Pim-1 and 10 to 100 nM on Pim-3.

Turning to `Cc1ccc2sc(N)c(C(=O)Nc3cnccc3N3CCC[C@H](N)C3)c2n1` (stereo in doubt) [Example 42, 2-Amino-N-[4-(3-aminopiperidin-1-yl)pyridin-3-yl]-5-methylthieno[3,2-b]pyridine-3-carboxamide], the half-maximal inhibitory concentration (IC50) on Pim-2 was more than 2000 nM; at Pim-1 it was more than 40 nM; at Pim-3, more than 40 nM.

With `Cn1ncc(NC(=O)c2c(N)sc3cccnc23)c1N1CCCC(N)CC1` (stereo not drawn) [Example 1, 2-Amino-N-[5-(4-aminoazepan-1-yl)-1-methyl-1H-pyrazol-4-yl]thieno[3,2-b]pyridine-3-carboxamide], the results for the IC50 at Pim-2, on Pim-1 and at Pim-3 were 100 to 1000 nM, not above 10 nM and not above 10 nM, respectively.

`Cn1ncc(NC(=O)c2c(N)sc3cccnc23)c1N1CCC[C@H](N)C1` [Example 2, 2-Amino-N-{5-[(3S)-3-aminopiperidin-1-yl]-1-methyl-1H-pyrazol-4-yl}thieno[3,2-b]pyridine-3-carboxamide]: the IC50 on Pim-2 was 100 to 1000 nM; at Pim-1, not above 10 nM; on Pim-3 it was not above 10 nM.

For `Cn1ncc(NC(=O)c2c(N)sc3cccnc23)c1N1CCC[C@@H](N)C1` [Example 3, 2-Amino-N-{5-[(3R)-3-aminopiperidin-1-yl]-1-methyl-1H-pyrazol-4-yl}thieno[3,2-b]pyridine-3-carboxamide], the figures for the IC50 on Pim-2, on Pim-1 and on Pim-3 were more than 2000 nM, not above 10 nM and not above 10 nM, respectively.

On to `Cn1ncc(NC(=O)c2c(N)sc3cccnc23)c1N1CCCNCC1` [Example 4, 2-Amino-N-[5-(1,4-diazepan-1-yl)-1-methyl-1H-pyrazol-4-yl]thieno[3,2-b]pyridine-3-carboxamide], for which the values for the IC50 at Pim-2, on Pim-1 and on Pim-3 were more than 1000 nM, not above 10 nM and not above 10 nM, respectively.

`Cn1ncc(NC(=O)c2c(N)sc3cccnc23)c1-c1ccc2c(c1)C(N)CC2` (stereo not drawn) [Example 5, 2-Amino-N-[5-(3-amino-2,3-dihydro-1H-inden-5-yl)-1-methyl-1H-pyrazol-4-yl]thieno[3,2-b]pyridine-3-carboxamide]: the IC50 is 100 to 1000 nM on Pim-2, not above 10 nM on Pim-1 and not above 10 nM at Pim-3.

Turning to `Nc1sc2cccnc2c1C(=O)Nc1cnccc1N1CCC[C@H](N)C1` [Example 6, 2-Amino-N-{4-[(3S)-3-aminopiperidin-1-yl]pyridin-3-yl}thieno[3,2-b]pyridine-3-carboxamide], the IC50 at Pim-2 was 100 to 1000 nM; at Pim-1, not above 10 nM; on Pim-3, not above 10 nM.

For the compound `Nc1sc2cccnc2c1C(=O)Nc1cnccc1N1CCC[C@@H](N)C1` [Example 7, 2-Amino-N-{4-[(3R)-3-aminopiperidin-1-yl]pyridin-3-yl}thieno[3,2-b]pyridine-3-carboxamide], the results for the IC50 at Pim-2, at Pim-1 and at Pim-3 were more than 2000 nM, not above 10 nM and more than 40 nM, respectively.

Consider `Nc1sc2cccnc2c1C(=O)Nc1cnccc1N1CCCNCC1` [Example 8, 2-Amino-N-[4-(1,4-diazepan-1-yl)pyridin-3-yl]thieno[3,2-b]pyridine-3-carboxamide], for which the IC50 at Pim-2 was more than 2000 nM; at Pim-1, not above 10 nM; on Pim-3 it was more than 40 nM.

Take `Nc1sc2cccnc2c1C(=O)Nc1cnccc1N1CCCC(N)CC1` (stereo not drawn) [Example 9, 2-Amino-N-[4-(4-aminoazepan-1-yl)pyridin-3-yl]thieno[3,2-b]pyridine-3-carboxamide]: the half-maximal inhibitory concentration (IC50) is more than 2000 nM on Pim-2, 10 to 100 nM on Pim-1 and more than 40 nM on Pim-3.

As for `COc1cnc2c(C(=O)Nc3cnccc3N3CCC[C@H](N)C3)c(N)sc2c1` [Example 12, 2-Amino-N-{4-[(3S)-3-aminopiperidin-1-yl]pyridin-3-yl}-6-methoxythieno[3,2-b]pyridine-3-carboxamide], the IC50 on Pim-2 is 100 to 1000 nM; at Pim-1, not above 10 nM; on Pim-3, not above 10 nM.

Turning to `COc1cnc2c(C(=O)Nc3cnn(C)c3N3CCCC(N)CC3)c(N)sc2c1` (stereo not drawn) [Example 13, 2-Amino-N-[5-(4-aminoazepan-1-yl)-1-methyl-1H-pyrazol-4-yl]-6-methoxythieno[3,2-b]pyridine-3-carboxamide], the results for the IC50 at Pim-2, on Pim-1 and on Pim-3 were 10 to 100 nM, not above 10 nM and not above 10 nM, respectively.

As to `Nc1sc2cc(OC3CC3)cnc2c1C(=O)Nc1cnccc1N1CCC[C@H](N)C1` [Example 14, 2-Amino-N-{4-[(3S)-3-aminopiperidin-1-yl]pyridin-3-yl}-6-cyclopropoxythieno[3,2-b]pyridine-3-carboxamide], the results for the IC50 at Pim-2, at Pim-1 and on Pim-3 were more than 2000 nM, not above 10 nM and not above 10 nM, respectively.

Consider `C[C@@H]1C[C@H](N)CN(c2ccncc2NC(=O)c2c(N)sc3cccnc23)C1` [Example 15, 2-Amino-N-{4-[(3S,5R)-3-amino-5-methyl-piperidin-1-yl]pyridin-3-yl}-thieno[3,2-b]pyridine-3-carboxamide], for which the concentration for half-maximal inhibition (IC50) at Pim-2 is 100 to 1000 nM; on Pim-1, not above 10 nM; at Pim-3, not above 10 nM.

As for `COc1ccnc2c(C(=O)Nc3cnccc3N3CCC[C@H](N)C3)c(N)sc12` [Example 16, 2-Amino-N-{4-[(3S)-3-aminopiperidin-1-yl]pyridin-3-yl}-7-methoxythieno[3,2-b]pyridine-3-carboxamide], the half-inhibitory concentration (IC50) is 100 to 1000 nM on Pim-2, not above 10 nM on Pim-1 and not above 10 nM at Pim-3.

Turning to `COc1ccnc2c(C(=O)Nc3cnn(C)c3N3CCCC(N)CC3)c(N)sc12` (stereo not drawn) [Example 17, 2-Amino-N-[5-(4-aminoazepan-1-yl)-1-methyl-1H-pyrazol-4-yl]-7-methoxythieno[3,2-b]pyridine-3-carboxamide], the IC50 at Pim-2, at Pim-1 and at Pim-3 was not above 10 nM each time.

Take `CC(C)Oc1ccnc2c(C(=O)Nc3cnccc3N3CCC[C@H](N)C3)c(N)sc12` [Example 18, 2-Amino-N-{4-[(3S)-3-aminopiperidin-1-yl]pyridin-3-yl}-7-isopropoxythieno[3,2-b]pyridine-3-carboxamide]: the IC50 on Pim-2 was more than 1000 nM; on Pim-1, more than 40 nM; at Pim-3, not above 10 nM.

In the case of `CC(C)Oc1ccnc2c(C(=O)Nc3cnn(C)c3N3CCCC(N)CC3)c(N)sc12` (stereo not drawn) [Example 19, 2-Amino-N-[5-(4-aminoazepan-1-yl)-1-methyl-1H-pyrazol-4-yl]-7-isopropoxythieno[3,2-b]pyridine-3-carboxamide], the IC50 was 10 to 100 nM on Pim-2, not above 10 nM at Pim-1 and not above 10 nM at Pim-3.

`CCOc1ccnc2c(C(=O)Nc3cnccc3N3CCC[C@H](N)C3)c(N)sc12` [Example 20, 2-Amino-N-{4-[(3S)-3-aminopiperidin-1-yl]pyridin-3-yl}-7-ethoxythieno[3,2-b]pyridine-3-carboxamide]: the values for the concentration for half-maximal inhibition (IC50) at Pim-2, at Pim-1 and on Pim-3 were 100 to 1000 nM, not above 10 nM and not above 10 nM, respectively.
